In US10973801B2, “Capsid assembly modulator dosing regimen” (Janssen Sciences Ireland Unlimited Company, priority 2018, dated 2021):
Several values for one entry are separate records, joined by “and”; a condition that tells them apart may be missing. Identical values can stand only once. Like-named read-outs stand apart in the source and are kept apart here.

Experiments:
[1] = Part 1: tolerability of Compound A in healthy subjects (sessions 1-7); type: in vivo, human; settings: single doses up to 600 mg, multiple doses 150 mg for two days then 100 mg once a day for 10 days
HBV RNA = HBV RNA in treatment naïve chronic hepatitis B patients; type: in vivo, hepatitis B virus; settings: N 8
Description: In part 2 of this study (FIG. 1, sessions 8-9), the objective was to evaluate the safety, PK, and antiviral activity of Compound A in treatment naïve, chronic hepatitis B patients over a 28-day treatment period. The patient criteria were: • HBeAg-positive or negative • Plasma HBV DNA>2.0 log 10 IU/mL • ALT/AST<2.5×ULN • METAVIR stage<F3. 1.1 Patient Baseline Characteristics HBV DNA was assessed for each patient weekly during this study (see FIG. 3). A mean reduction in plasma HBV DNA levels of 2.16 (±0.49 SD) log10 IU/mL (25 mg Compound A) and 2.89 (±0.48 SD) log10 IU/mL (75 mg Compound A) from baseline was observed after 28 days. Three patients dosed with 75 mg QD achieved HBV DNA below the level of quantification of the HBV DNA assay while none in the 25 mg Compound A group achieved this. A more pronounced and consistent decline in HBV DNA was observed across patients in the 75 mg group compared with the 25 mg group.

[2] = Pharmacokinetics of single ascending doses in healthy Japanese volunteers; type: in vivo, human; settings: for Mean CL/F (SD) / Cmax / Vd/F / half-life / Tmax: fasted (n = 6); for Cmax / Vd/F / half-life / Tmax: human, plasma, oral; for Cmax: read-out: Mean Cmax (SD); for Vd/F: read-out: Mean Vd/F (SD); for half-life: read-out: Mean t1/2 term (SD) (converted); for Tmax: read-out: Median tmax
Description: A double-blind, placebo-controlled study was done to assess the safety, tolerability, and pharmacokinetics (PK) of Compound A. Thirty-two healthy adult Japanese volunteers were randomized into four cohorts. The volunteers were randomized 3:1 to receive a single dose of Compound A or placebo in a fasted state (see FIG. 4). The safety, tolerability and PK plasma profiles of Compound A were assessed after each dose. Full plasma PK profiles were determined up to 28 days after each single dose of Compound A. Urinary elimination was assessed in Cohort C (see FIG. 4) for 7 day.
The PKs were dose-dependent in all four treatment cohorts. […] The inter-subject variability, expressed as % CV, was low to moderate and similar across dose levels.

[3] = Oral bioavailability of Compound A 25-mg and 100-mg oral tablets, fasted and fed, in healthy adult subjects; type: in vivo, human; settings: for Tmax: read-out: tmax (median)
Description: The primary objectives were to evaluate the oral bioavailability of Compound A when administered as single dose of 150 mg, composed of 6×25-mg oral tablets, under fasted and fed conditions, and as single dose of 300 mg, composed of 3×100-mg oral tablets, under fasted conditions in healthy adult subjects Part I was conducted to assess the bioavailability of new 25 mg oral tablets of Compound A under fasted and fed conditions, and of new 100 mg oral tablets of Compound A under fasted conditions, in healthy adult subjects. In Treatment Period 1 of Part I, all 16 subjects received a single 150 mg dose (6×25 mg oral tablets) under fed conditions (Treatment A). Thereafter, subjects were randomly assigned to either Arm 1 or Arm 2 in a 1:1 ratio. In Arm 1, subjects received a single 150 mg dose (6×25 mg oral tablets) under fasted conditions in Treatment Period 2 (Treatment B). In Arm 2, subjects received a single 300 mg dose (3×100 mg oral tablets) under fasted conditions in Treatment Period 2 (Treatment C). Full pharmacokinetic (PK) profiles of Compound A were determined over approximately 768 hours […] after Compound A administration on Day 1 of each treatment period. Safety and tolerability were assessed throughout the study. In Part I, 16 healthy adult subjects were included. After Treatment A (150 mg Compound A, fed) in Treatment Period 1, subjects were randomly assigned to either Arm 1 (n=8; Treatment B [150 mg Compound A, fasted]) or Arm 2 (Treatment C [[…]; 300 mg Compound A, fasted]) in a 1:1 ratio in Treatment Period 2. Fifteen subjects completed study participation in Part I, but all 16 subjects were included in the PK and safety analyses. […] Subjects had to be healthy on the basis of medical and surgical history, physical examination, 12 lead electrocardiogram (ECG), vital signs, and clinical laboratory tests performed at screening. Male and female subjects had to adhere to the contraceptive requirements as specified in the protocol. The study consisted of a screening phase, an admission phase, a treatment phase, and a follow-up phase (posttreatment phase). During the follow-up phase, subjects returned to the study site 10-14 days and 30-35 days after study drug administration in the last treatment period for a follow-up visit. The duration of each treatment phase was 33±3 days and the study duration per individual subject was at least 61 days (including admission and follow-up period), screening period not included.

[4] = 150 mg, 6 × 25 mg, Fasting, Treatment B
[5] = 150 mg, 6 × 25 mg, Fasting, Treatment B (Reference)
[6] = 150 mg, 6 × 25 mg, Fed, Treatment A
[7] = 300 mg, 3 × 100 mg, Fasting, Treatment C
[8] = 300 mg, 3 × 100 mg, Fasting, Treatment C (Test)
[9] = Treatment A (fed) vs Treatment B (fasted), 150 mg
[10] = Treatment C (3 × 100 mg) vs Treatment B (6 × 25 mg), fasting

Mean CL/F (SD) ([2]; 25 mg single dose): 1.03 (0.33) L/h
Mean CL/F (SD) ([2]; 160 mg single dose): 0.929 (0.24) L/h
Mean CL/F (SD) ([2]; 300 mg single dose): 0.852 (0.17) L/h
Mean CL/F (SD) ([2]; 500 mg single dose): 0.919 (0.23) L/h
dose dependence of PKs ([2]; all four treatment cohorts): dose-dependent
Cmax ([2]; 25 mg single dose): 375 ng/mL
Vd/F ([2]; 25 mg single dose): 132 L
half-life ([2]; 25 mg single dose): 4.43 days
Tmax ([2]; 25 mg single dose): 1.75 h
Cmax ([2]; 160 mg single dose): 296 ng/mL
Vd/F ([2]; 160 mg single dose): 126 L
half-life ([2]; 160 mg single dose): 4.17 days
Tmax ([2]; 160 mg single dose): 3 h
Cmax ([2]; 300 mg single dose): 308 ng/mL
Vd/F ([2]; 300 mg single dose): 1140 L
half-life ([2]; 300 mg single dose): 4.83 days
Tmax ([2]; 300 mg single dose): 3 h
Cmax ([2]; 500 mg single dose): 328 ng/mL
Vd/F ([2]; 500 mg single dose): 119 L
half-life ([2]; 500 mg single dose): 3.98 days
Tmax ([2]; 500 mg single dose): 1.75 h
administered dose excreted via the kidneys ([2]; single dose 300 mg, Cohort C): 18%
unchanged drug excreted in urine ([2]; single dose 300 mg, Cohort C, 7 day): 53.9 mg
AUClast, dose normalized to 25 mg (mean) [3, 4]: 29467 ng·h/mL
AUC∞, dose normalized to 25 mg (mean) [3, 4]: 30318 ng·h/mL
Cmax, dose normalized to 25 mg (mean) [3, 4]: 320 ng/mL
AUClast, dose normalized (to 25 mg), Geometric Mean [3, 5]: 27226 ng·h/mL
AUC∞, dose normalized (to 25 mg), Geometric Mean [3, 5]: 28011 ng·h/mL
Cmax, dose normalized (to 25 mg), Geometric Mean [3, 5]: 294 ng/mL
AUClast, dose normalized to 25 mg (mean) [3, 6]: 28502 ng·h/mL
AUC∞, dose normalized to 25 mg (mean) [3, 6]: 29580 ng·h/mL
Cmax, dose normalized to 25 mg (mean) [3, 6]: 257 ng/mL
AUClast, dose normalized to 25 mg (mean) [3, 7]: 30951 ng·h/mL
AUC∞, dose normalized to 25 mg (mean) [3, 7]: 32747 ng·h/mL
Cmax, dose normalized to 25 mg (mean) [3, 7]: 231 ng/mL
AUClast, dose normalized (to 25 mg), Geometric Mean [3, 8]: 30835 ng·h/mL
AUC∞, dose normalized (to 25 mg), Geometric Mean [3, 8]: 32329 ng·h/mL
Cmax, dose normalized (to 25 mg), Geometric Mean [3, 8]: 231 ng/mL
AUClast Geometric Mean Ratio [3, 9]: 101.05%
AUC∞ Geometric Mean Ratio [3, 9]: 101.91%
Cmax Geometric Mean Ratio [3, 9]: 85.8% and 85.84%
Cmax lower under fed conditions [3, 9]: 14.2%
Mean (range) t½term ([3]; Treatment A, 150 mg fed): 134.3 (65.7-221.6) hours
Mean (range) t½term ([3]; Treatment B, 150 mg fasted): 123.9 (72.3-195.7) hours
AUClast, dose normalized, Geometric Mean Ratio [3, 10]: 113.26%
AUC∞, dose normalized, Geometric Mean Ratio [3, 10]: 115.42%
Cmax, dose normalized, Geometric Mean Ratio [3, 10]: 78.4% and 78.44%
dose normalized Cmax lower for the 100 mg tablet strength compared to the 25 mg tablet strength ([3]; Treatment C vs Treatment B, fasted): 21.6%
Mean (range) t½term ([3]; Treatment C, 300 mg fasted): 161.1 (111.5-257.3) hours
AUC(0-t) ([3]; both sexes, human, in vivo, oral, 150 mg, 6 × 25 mg, Fasting, Treatment B (Reference), read-out: AUClast, Geometric Mean): 163 µg·h/mL
AUC(0-inf) ([3]; both sexes, human, in vivo, oral, 150 mg, 6 × 25 mg, Fasting, Treatment B (Reference), read-out: AUC∞, Geometric Mean): 168 µg·h/mL
Cmax ([3]; both sexes, human, in vivo, oral, 150 mg, 6 × 25 mg, Fasting, Treatment B (Reference), read-out: Cmax, Geometric Mean): 1770 ng/mL
AUC(0-t) ([3]; both sexes, human, in vivo, oral, 150 mg, 6 × 25 mg, Fasting, Treatment B, read-out: AUClast (mean)): 177 µg·h/mL
AUC(0-inf) ([3]; both sexes, human, in vivo, oral, 150 mg, 6 × 25 mg, Fasting, Treatment B, read-out: AUC∞ (mean)): 182 µg·h/mL
Cmax ([3]; both sexes, human, in vivo, oral, 150 mg, 6 × 25 mg, Fasting, Treatment B, read-out: Cmax (mean)): 1920 ng/mL
Tmax ([3]; both sexes, human, in vivo, oral, 150 mg, 6 × 25 mg, Fasting, Treatment B): 1.75 h
Cmax ([3]; both sexes, human, in vivo, oral, 150 mg, 6 × 25 mg, Fed (Standard Breakfast), Treatment A, read-out: Cmax (mean)): 1540 ng/mL
AUC(0-t) ([3]; both sexes, human, in vivo, oral, 150 mg, 6 × 25 mg, Fed, Treatment A (Test), read-out: AUClast, Geometric Mean): 165 µg·h/mL
AUC(0-inf) ([3]; both sexes, human, in vivo, oral, 150 mg, 6 × 25 mg, Fed, Treatment A (Test), read-out: AUC∞, Geometric Mean): 171 µg·h/mL
Cmax ([3]; both sexes, human, in vivo, oral, 150 mg, 6 × 25 mg, Fed, Treatment A (Test), read-out: Cmax, Geometric Mean): 1520 ng/mL
AUC(0-t) ([3]; both sexes, human, in vivo, oral, 150 mg, 6 × 25 mg, Fed, Treatment A, read-out: AUClast (mean)): 171 µg·h/mL
AUC(0-inf) ([3]; both sexes, human, in vivo, oral, 150 mg, 6 × 25 mg, Fed, Treatment A, read-out: AUC∞ (mean)): 177 µg·h/mL
Tmax ([3]; both sexes, human, in vivo, oral, 150 mg, 6 × 25 mg, Fed, Treatment A): 4 h
AUC(0-t) ([3]; both sexes, human, in vivo, oral, 300 mg, 3 × 100 mg, Fasting, Treatment C, read-out: AUClast (mean)): 371 µg·h/mL
AUC(0-inf) ([3]; both sexes, human, in vivo, oral, 300 mg, 3 × 100 mg, Fasting, Treatment C, read-out: AUC∞ (mean)): 393 µg·h/mL
Cmax ([3]; both sexes, human, in vivo, oral, 300 mg, 3 × 100 mg, Fasting, Treatment C, read-out: Cmax (mean)): 2770 ng/mL
Tmax ([3]; both sexes, human, in vivo, oral, 300 mg, 3 × 100 mg, Fasting, Treatment C): 3 h
clearance ([3]; both sexes, human, in vivo, oral, over all treatments and individuals, read-out: Clearance (CUF)): 7.83 to 25.8 mL/min
SMILES: C[C@H](NS(=O)(=O)c1cc(C(=O)Nc2ccc(F)c(C#N)c2)n(C)c1)C(F)(F)F [Compound A]
tolerability [1]: well tolerated
HBV RNA Day 29 Mean Change from Baseline (HBV RNA; 25 mg QD): −2.30 log10 cp/mL
HBV RNA Day 29 Not detected (number of patients) (HBV RNA; 25 mg QD): 3
HBV RNA Day 29 Mean Change from Baseline (HBV RNA; 75 mg QD): −1.85 log10 cp/mL
HBV RNA Day 29 Not detected (number of patients) (HBV RNA; 75 mg QD): 6
